Assay results published in patent US20130137691A1, “DERIVATIVES OF OXADIAZOLE AND PYRIDAZINE, THEIR PREPARATION AND THEIR APPLICATION IN THERAPEUTICS” (SANOFI, priority 2010, published 2013).

Legend:
DGAT-1 enzyme = target: T1, DGAT-1 enzyme (Homo sapiens, UniProt O75907); assay: DGAT-1 enzyme inhibition, phase partitioning assay (PPA), 96-well; assay type: biochemical; details: recombinant DGAT-1 produced in Sf9 insect cells; 1,2-di(cis-9-octadecenoyl)-sn-glycerol and octanoylCoA; read-out: IC50, concentration that inhibits 50% of the activity of DGAT-1
T1 construct: made in house; host or cells: Sf9 insect cells (baculovirus)
T1 sequence (O75907 1-488): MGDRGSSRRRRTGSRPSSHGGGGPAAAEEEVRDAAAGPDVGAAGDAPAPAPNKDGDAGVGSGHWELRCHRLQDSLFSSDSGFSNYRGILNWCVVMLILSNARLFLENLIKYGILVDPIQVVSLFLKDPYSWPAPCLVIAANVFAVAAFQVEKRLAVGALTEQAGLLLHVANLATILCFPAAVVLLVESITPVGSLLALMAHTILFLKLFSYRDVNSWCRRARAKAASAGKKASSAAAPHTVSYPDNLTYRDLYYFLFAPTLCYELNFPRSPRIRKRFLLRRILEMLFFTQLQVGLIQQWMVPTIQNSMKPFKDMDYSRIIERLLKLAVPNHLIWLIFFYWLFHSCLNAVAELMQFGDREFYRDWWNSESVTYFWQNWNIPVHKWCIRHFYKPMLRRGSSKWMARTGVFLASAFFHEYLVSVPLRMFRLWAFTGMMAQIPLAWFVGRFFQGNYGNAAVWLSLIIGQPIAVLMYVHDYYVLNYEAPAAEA
Method: The recombinant DGAT-1 protein was produced in Sf9 insect cells transfected with a baculovirus. The reaction was carried out by incubating the enzyme in the presence of 1,2-di(cis-9-octadecenoyl)-sn-glycerol and octanoylCoA. The amount of triacylglycerol formed during the reaction is measured. […] The radioactivity is measured using a MicroBeta counter (Perkin Elmer).

[1] = tested on: triglyceride biosynthesis in Chang liver cells; assay: Inhibition of triglyceride biosynthesis in Chang liver cells ([14C] glycerol incorporation); details: read-out: inhibitory activity on triglyceride biosynthesis, concentration that inhibits 50% of the activity
Method: These trials consisted in measuring the in vitro inhibitory activity of the compounds of the invention on a cell test.
Chang liver cells at 80% confluence are detached with trypsin-EDTA, 4 ml per 175 cm^2 flask. After centrifugation at 1300×g for 5 minutes, the cell pellet is washed once with PBS and then resuspended in whole medium. The number of cells and their viability are determined on Mallassez cells via the exclusion method with trypan blue.
150 000 cells are inoculated per well into a 24-well plate for a minimum of 3 h in DMEM medium 4.5 g/l of glucose supplemented with 10% FCS and with antibiotics, and are maintained at 37° C. in an incubator with CO2 (5%).
After 3 h, the cells have adhered, the medium is removed and replaced overnight with DMEM medium 4.5 g/l of glucose with 2% of BSA/oleate.
Next, the cell membranes are destroyed by sonication on a water bath, for 30 minutes. […] The radioactivity is measured using a Flo One C625TR machine (Perkin-Elmer).
The inhibitory activity on triglyceride biosynthesis is given by the concentration that inhibits 50% of the activity.

## O=C(O)CC[C@H]1CC[C@H](c2ccc(C(=O)Nc3nc(Cc4ccccc4)no3)cc2)CC1 [Compound 3d, trans-3-{4-[4-(3-benzyl[1.2.4]oxadiazol-5-ylcarbamoyl)phenyl]cyclohexyl}propionic acid]
DGAT-1 enzyme
  IC50: 927 nM
other
  melting point: 193 °C

## O=C(Nc1nc(Cc2ccccc2)no1)c1ccc(C2CCC(C3CC3C(=O)O)CC2)cc1 (stereo not drawn) [Compound 3b, trans-2-{4-[4-(3-benzyl[1.2.4]oxadiazol-5-ylcarbamoyl)phenyl]cyclohexyl}cyclopropanecarboxylic acid]
DGAT-1 enzyme
  IC50: 742 nM
other
  melting point: 187 °C

## O=C(Nc1nc(C2(c3ccccc3)CC2)no1)c1ccc(O[C@H]2CC[C@@H](C(=O)O)CC2)cc1 [Compound 6, cis-4-{4-[3-(1-phenylcyclopropyl)[1.2.4]oxadiazol-5-ylcarbamoyl]phenoxy}-cyclohexanecarboxylic acid]
DGAT-1 enzyme
  IC50: 3760 nM
other
  melting point: 215 to 222 °C

## O=C(Nc1ccc(NC2CCCC2)nn1)c1ccc(O[C@H]2CC[C@@H](C(=O)O)CC2)cc1 [Compound 9, cis 4-[4-(6-cyclopentylaminopyridazin-3-ylcarbamoyl)phenoxy]-cyclohexanecarboxylic acid]
DGAT-1 enzyme
  IC50: 51 nM

## O=C(Nc1nc(Cc2ccccc2)no1)c1ccc(O[C@H]2CC[C@@H](C(=O)O)CC2)nc1 [Compound 10, cis-4-[5-(3-benzyl[1.2.4]oxadiazol-5-ylcarbamoyl)pyridin-2-yloxy]-cyclohexanecarboxylic acid]
DGAT-1 enzyme
  IC50: 81 nM
other
  melting point: 205 to 210 °C

## CC(C)(c1ccccc1)c1noc(NC(=O)c2ccc(O[C@H]3CC[C@@H](C(=O)O)CC3)cc2)n1 [Compound 7]
DGAT-1 enzyme
  IC50: 5700 nM
other
  melting point: 250 to 255 °C

## O=C(O)CC1CCC(c2ccc(C(=O)Nc3ccc(Cc4ccccc4)nn3)cc2)CC1 (stereo not drawn) [Compound 3, {4-[4-(6-benzylpyridazin-3-ylcarbamoyl)phenyl]cyclohexyl}acetic acid]
DGAT-1 enzyme
  IC50: 890 nM

## O=C(O)/C=C/[C@H]1CC[C@H](c2ccc(C(=O)Nc3nc(Cc4ccccc4)no3)cc2)CC1 [Compound 3c, (E)-3-{4-[4-(3-benzyl[1.2.4]oxadiazol-5-ylcarbamoyl)phenyl]cyclohexyl}acrylic acid]
DGAT-1 enzyme
  IC50: 2210 nM
other
  melting point: 210 °C

## O=C(Nc1nc(COc2ccccc2)no1)c1ccc(O[C@H]2CC[C@@H](C(=O)O)CC2)cc1 [Compound 8, cis-4-[4-(3-phenoxymethyl[1.2.4]oxadiazol-5-ylcarbamoyl)phenoxy]cyclohexanecarboxylic acid]
DGAT-1 enzyme
  IC50: 94 nM
other
  melting point: 210 to 212 °C
[1]
  IC50: 319 nM

## COc1ccc(-c2ccc(NC(=O)c3ccc(O[C@H]4CC[C@@H](C(=O)O)CC4)cc3)nn2)cc1 [Compound 12, cis-4-{4-[6-(4-methoxyphenyl)pyridazin-3-ylcarbamoyl]phenoxy}-cyclohexanecarboxylic acid]
DGAT-1 enzyme
  IC50: 7180 nM
other
  melting point: 319 to 322 °C

## O=C(Nc1ccc(Nc2ccccc2)nn1)c1ccc(O[C@H]2CC[C@@H](C(=O)O)CC2)cc1 [Compound 11, cis-4-[4-(6-phenylaminopyridazin-3-ylcarbamoyl)phenoxy]cyclohexanecarboxylic acid]
DGAT-1 enzyme
  IC50: 5910 nM
other
  melting point: 259 to 261 °C
